Assay results reported in publication PMC5218480 (PLoS ONE, 2017).

System: MV-4-11 cells
Test: Gene expression microarray analysis (Affymetrix PrimeView) and GSEA
Format: cell-based, human
Set-up: RFU PODN (11730768_x_at) / Fold change /veh PODN (11730768_x_at) / RFU LINC00158 (11744669_a_at) / Fold change /veh LINC00158 (11744669_a_at) / RFU DUSP10 (11751237_a_at) / Fold change /veh DUSP10 (11751237_a_at) / RFU ID3 (11757404_x_at) / Fold change /veh ID3 (11757404_x_at) / RFU PLEKHG5 (11737974_s_at) / Fold change /veh PLEKHG5 (11737974_s_at) / RFU LRRC4B (11730491_at) / Fold change /veh LRRC4B (11730491_at) / RFU GIMAP4 (11747438_a_at) / Fold change /veh GIMAP4 (11747438_a_at) / RFU KRT8 (11758183_x_at) / Fold change /veh KRT8 (11758183_x_at) / RFU CNN1 (11734310_a_at) / Fold change /veh CNN1 (11734310_a_at) / RFU VPS37D (11726825_at) / Fold change /veh VPS37D (11726825_at) / RFU C10orf10 (11716522_x_at) / Fold change /veh C10orf10 (11716522_x_at) / RFU KIR2DL2 /// KIR2DL4 /// KIR2DL5A /// KIR2DL5B /// KIR2DS1 /// KIR2DS2 /// KIR2DS3 /// KIR2DS4 /// KIR3DL3 /// KIR3DL3 /// KIR3DS1 (11738374_at) / Fold change /veh KIR2DL2 /// KIR2DL4 /// KIR2DL5A /// KIR2DL5B /// KIR2DS1 /// KIR2DS2 /// KIR2DS3 /// KIR2DS4 /// KIR3DL3 /// KIR3DL3 /// KIR3DS1 (11738374_at) / RFU C1QL1 (11718748_at) / Fold change /veh C1QL1 (11718748_at) / RFU TMPRSS4 (11747572_a_at) / Fold change /veh TMPRSS4 (11747572_a_at) / RFU HAMP (11756126_x_at) / Fold change /veh HAMP (11756126_x_at) / RFU RNFT2 (11725882_a_at) / Fold change /veh RNFT2 (11725882_a_at) / RFU NR4A2 (11747474_a_at) / Fold change /veh NR4A2 (11747474_a_at) / RFU ABCC12 (11746883_a_at) / Fold change /veh ABCC12 (11746883_a_at) / RFU TMEM136 (11760407_x_at) / Fold change /veh TMEM136 (11760407_x_at) / RFU CLDN22 /// WWC2 (11732394_at) / Fold change /veh CLDN22 /// WWC2 (11732394_at) / RFU HLA-DPB1 (11760878_x_at) / Fold change /veh HLA-DPB1 (11760878_x_at) / RFU SPINT1 (11716480_a_at) / Fold change /veh SPINT1 (11716480_a_at) / RFU GAP43 (11754022_s_at) / Fold change /veh GAP43 (11754022_s_at) / RFU A4GNT (11735810_at) / Fold change /veh A4GNT (11735810_at) / RFU PRB3 (11715151_x_at) / Fold change /veh PRB3 (11715151_x_at) / RFU TUBB4B (11761932_at) / Fold change /veh TUBB4B (11761932_at) / RFU CAPN14 (11732068_a_at) / Fold change /veh CAPN14 (11732068_a_at) / RFU TMCC2 (11721928_a_at) / Fold change /veh TMCC2 (11721928_a_at) / RFU IRGQ (11745062_a_at) / Fold change /veh IRGQ (11745062_a_at) / RFU FAM174B (11720279_a_at) / Fold change /veh FAM174B (11720279_a_at) / RFU TMPRSS4 (11748680_a_at) / Fold change /veh TMPRSS4 (11748680_a_at) / RFU FAM212B (11763350_a_at) / Fold change /veh FAM212B (11763350_a_at) / RFU PLEKHG5 (11743358_a_at) / Fold change /veh PLEKHG5 (11743358_a_at) / RFU ZSCAN30 (11745921_a_at) / Fold change /veh ZSCAN30 (11745921_a_at) / RFU CMKLR1 (11741424_a_at) / Fold change /veh CMKLR1 (11741424_a_at) / RFU LOC101060620 /// MAPK8IP1 (11723275_at) / Fold change /veh LOC101060620 /// MAPK8IP1 (11723275_at) / RFU SPTSSB (11747773_x_at) / Fold change /veh SPTSSB (11747773_x_at) / RFU PRSS12 (11739890_at) / Fold change /veh PRSS12 (11739890_at) / RFU BIN1 (11741810_x_at) / Fold change /veh BIN1 (11741810_x_at) / RFU WNT11 (11732464_a_at) / Fold change /veh WNT11 (11732464_a_at) / RFU C10orf10 (11716521_a_at) / Fold change /veh C10orf10 (11716521_a_at) / RFU C5orf56 (11738089_at) / Fold change /veh C5orf56 (11738089_at) / RFU CYB561 (11721691_x_at) / Fold change /veh CYB561 (11721691_x_at) / RFU ANKRD19P (11752326_a_at) / Fold change /veh ANKRD19P (11752326_a_at) / RFU OR2T12 /// OR2T33 /// OR2T8 (11738714_s_at) / Fold change /veh OR2T12 /// OR2T33 /// OR2T8 (11738714_s_at) / RFU VCAN (11748164_a_at) / Fold change /veh VCAN (11748164_a_at) / RFU JSRP1 (11732532_at) / Fold change /veh JSRP1 (11732532_at) / RFU KRTAP10-11 (11738290_x_at) / Fold change /veh KRTAP10-11 (11738290_x_at) / RFU MYO3A (11730013_a_at) / Fold change /veh MYO3A (11730013_a_at) / RFU EBF3 (11725865_a_at) / Fold change /veh EBF3 (11725865_a_at) / RFU CAMK2N1 (11719241_x_at) / Fold change /veh CAMK2N1 (11719241_x_at) / RFU C5orf56 (11738088_a_at) / Fold change /veh C5orf56 (11738088_a_at) / RFU OLFML3 (11715873_a_at) / Fold change /veh OLFML3 (11715873_a_at) / RFU LOC100653217 /// NTM (11731650_a_at) / Fold change /veh LOC100653217 /// NTM (11731650_a_at) / RFU MAPK11 (11762145_a_at) / Fold change /veh MAPK11 (11762145_a_at) / RFU FIZ1 (11724087_x_at) / Fold change /veh FIZ1 (11724087_x_at) / RFU OASL (11726364_x_at) / Fold change /veh OASL (11726364_x_at) / RFU SOX15 (11748057_x_at) / Fold change /veh SOX15 (11748057_x_at) / RFU CD79A (11719716_a_at) / Fold change /veh CD79A (11719716_a_at) / RFU HIST1H1D (11736915_at) / Fold change /veh HIST1H1D (11736915_at) / RFU CASKIN2 (11723855_a_at) / Fold change /veh CASKIN2 (11723855_a_at) / RFU LOC730098 (11760151_x_at) / Fold change /veh LOC730098 (11760151_x_at) / RFU OR4N2 (11742367_at) / Fold change /veh OR4N2 (11742367_at) / RFU PRRT2 (11749266_a_at) / Fold change /veh PRRT2 (11749266_a_at) / RFU SNX32 (11753110_a_at) / Fold change /veh SNX32 (11753110_a_at) / RFU CDHR5 (11726645_a_at) / Fold change /veh CDHR5 (11726645_a_at) / RFU RCAN1 (11760418_a_at) / Fold change /veh RCAN1 (11760418_a_at) / RFU FAM167A (11723789_a_at) / Fold change /veh FAM167A (11723789_a_at) / RFU FAM26E (11764081_at) / Fold change /veh FAM26E (11764081_at) / RFU ISYNA1 (11749810_s_at) / Fold change /veh ISYNA1 (11749810_s_at) / RFU ACY1 (11761880_at) / Fold change /veh ACY1 (11761880_at) / RFU 11764098_at / Fold change /veh 11764098_at / RFU SAMD14 (11745864_x_at) / Fold change /veh SAMD14 (11745864_x_at) / RFU NPB (11741838_a_at) / Fold change /veh NPB (11741838_a_at) / RFU TMPRSS6 (11731388_a_at) / Fold change /veh TMPRSS6 (11731388_a_at) / RFU KRTAP10-2 (11738614_at) / Fold change /veh KRTAP10-2 (11738614_at) / RFU ARHGAP8 /// PRR5-ARHGAP8 (11727945_x_at) / Fold change /veh ARHGAP8 /// PRR5-ARHGAP8 (11727945_x_at) / RFU KRTAP5-7 /// NADSYN1 (11734609_at) / Fold change /veh KRTAP5-7 /// NADSYN1 (11734609_at) / RFU RASL12 (11751679_a_at) / Fold change /veh RASL12 (11751679_a_at) / RFU CDKN2B (11736163_a_at) / Fold change /veh CDKN2B (11736163_a_at) / RFU PRF1 (11729649_at) / Fold change /veh PRF1 (11729649_at) / RFU, ZNF638 /// ZNF638-IT1 / Fold change vs veh, ZNF638 /// ZNF638-IT1 / RFU, PANK3 / Fold change vs veh, PANK3 / RFU, SH3YL1 / Fold change vs veh, SH3YL1 / RFU, ZEB2 / Fold change vs veh, ZEB2 / RFU, NRIP1 / Fold change vs veh, NRIP1 / RFU, PTTG1IP / Fold change vs veh, PTTG1IP / RFU, CAPN2 / Fold change vs veh, CAPN2 / RFU, MED14 / Fold change vs veh, MED14 / RFU, SNORA58 / Fold change vs veh, SNORA58 / RFU, C1orf63 / Fold change vs veh, C1orf63 / RFU, LRRFIP1 / Fold change vs veh, LRRFIP1 / RFU, NDUFAF7 / Fold change vs veh, NDUFAF7 / RFU, SLC12A2 / Fold change vs veh, SLC12A2 / RFU, IBTK / Fold change vs veh, IBTK / RFU, ESF1 / Fold change vs veh, ESF1 / Fold change vs veh, TMEM50B / RFU, TAOK1 / Fold change vs veh, TAOK1 / RFU, ACBD3 / Fold change vs veh, ACBD3 / RFU, TMA16 / Fold change vs veh, TMA16 / RFU, RWDD3 / Fold change vs veh, RWDD3 / RFU, BCAT1 / Fold change vs veh, BCAT1 / RFU, EDEM3 / Fold change vs veh, EDEM3 / RFU, TMEM33 / Fold change vs veh, TMEM33 / RFU, WDR75 / Fold change vs veh, WDR75 / RFU, AHCTF1 / Fold change vs veh, AHCTF1 / RFU, TFRC / Fold change vs veh, TFRC / RFU, ZDHHC17 / Fold change vs veh, ZDHHC17 / RFU, NOM1 / Fold change vs veh, NOM1 / RFU, ARL8B / Fold change vs veh, ARL8B / RFU, ZBTB11 / Fold change vs veh, ZBTB11 / RFU, TAMM41 / Fold change vs veh, TAMM41 / RFU, KIAA1704 /// LOC100996395 / Fold change vs veh, KIAA1704 /// LOC100996395 / RFU, ING1 / Fold change vs veh, ING1 / RFU, TRMT61B / Fold change vs veh, TRMT61B / RFU, FUBP3 / Fold change vs veh, FUBP3 / RFU, TP53 / Fold change vs veh, TP53 / RFU, TNKS2 / Fold change vs veh, TNKS2 / RFU, ZFP14 / Fold change vs veh, ZFP14 / RFU, ACTR2 / Fold change vs veh, ACTR2 / RFU, PPP3R1 / Fold change vs veh, PPP3R1 / RFU, PIK3R1 / Fold change vs veh, PIK3R1 / RFU, HNRNPA1 / Fold change vs veh, HNRNPA1 / RFU, RNF170 / Fold change vs veh, RNF170 / RFU, ZNF28 / Fold change vs veh, ZNF28 / RFU, RNGTT / Fold change vs veh, RNGTT / RFU, OGT / Fold change vs veh, OGT / RFU, BRD1 / Fold change vs veh, BRD1 / RFU, MARS / Fold change vs veh, MARS / RFU, ZNF655 / Fold change vs veh, ZNF655 / RFU, FAHD1 / Fold change vs veh, FAHD1 / RFU, BDP1 / Fold change vs veh, BDP1 / RFU, LRRCC1 / Fold change vs veh, LRRCC1 / RFU, ARID1A / Fold change vs veh, ARID1A / RFU, ZNF146 / Fold change vs veh, ZNF146 / RFU, ZNF330 / Fold change vs veh, ZNF330 / RFU, GPN3 / Fold change vs veh, GPN3 / RFU, C9orf123 / Fold change vs veh, C9orf123 / RFU, N4BP2L2 / Fold change vs veh, N4BP2L2 / RFU, ARFIP1 / Fold change vs veh, ARFIP1 / RFU, FAM179B / Fold change vs veh, FAM179B / RFU, BCL10 / Fold change vs veh, BCL10 / RFU, UHRF1BP1L / Fold change vs veh, UHRF1BP1L / RFU, BET1 / Fold change vs veh, BET1 / RFU, CNOT2 / Fold change vs veh, CNOT2 / RFU, ZNF268 / Fold change vs veh, ZNF268 / Fold change vs veh, ZNF507 / RFU, DGCR2 / Fold change vs veh, DGCR2 / RFU, WDSUB1 / Fold change vs veh, WDSUB1 / Fold change vs veh, HSP90B1 /// MIR3652 / RFU, ADSS / Fold change vs veh, ADSS / RFU, GK / Fold change vs veh, GK / RFU, ZNF148 / Fold change vs veh, ZNF148 / RFU, TAF9 / Fold change vs veh, TAF9 / RFU, SLC1A5 / Fold change vs veh, SLC1A5 / RFU, SLMO2 / Fold change vs veh, SLMO2 / RFU, ABCC4 / Fold change vs veh, ABCC4 / RFU, LOC101060439 /// RAP1B / Fold change vs veh, LOC101060439 /// RAP1B / RFU, RFX7 / Fold change vs veh, RFX7 / RFU, GTPBP10 / Fold change vs veh, GTPBP10 / RFU, CNEP1R1 / Fold change vs veh, CNEP1R1 / RFU, BIVM-ERCC5 /// ERCC5 / Fold change vs veh, BIVM-ERCC5 /// ERCC5 / RFU, ILF3 / Fold change vs veh, ILF3 / RFU 11762660_at / Fold change /veh 11762660_at / RFU VCAN (11757783_s_at) / Fold change /veh VCAN (11757783_s_at) / RFU DDX43 (11728927_at) / Fold change /veh DDX43 (11728927_at) / RFU KRT8 (11758188_x_at) / Fold change /veh KRT8 (11758188_x_at) / RFU NKD1 (11759106_at) / Fold change /veh NKD1 (11759106_at) / RFU SRD5A1 (11742802_a_at) / Fold change /veh SRD5A1 (11742802_a_at) / RFU TPSAB1 /// TPSB2 (11721975_s_at) / Fold change /veh TPSAB1 /// TPSB2 (11721975_s_at) / RFU GSTM3 (11746129_a_at) / Fold change /veh GSTM3 (11746129_a_at) / RFU IL23R (11737362_x_at) / Fold change /veh IL23R (11737362_x_at) / RFU TMEM51 (11727254_a_at) / Fold change /veh TMEM51 (11727254_a_at) / RFU PIWIL2 (11732686_x_at) / Fold change /veh PIWIL2 (11732686_x_at) / RFU ORM1 (11744905_x_at) / Fold change /veh ORM1 (11744905_x_at) / RFU CCDC152 (11743942_at) / Fold change /veh CCDC152 (11743942_at) / RFU ECM1 (11717891_a_at) / Fold change /veh ECM1 (11717891_a_at) / RFU IL23R (11748794_a_at) / Fold change /veh IL23R (11748794_a_at) / RFU TNFAIP8L3 (11732012_x_at) / Fold change /veh TNFAIP8L3 (11732012_x_at) / RFU MBOAT4 (11741988_at) / Fold change /veh MBOAT4 (11741988_at) / RFU 11764193_at / Fold change /veh 11764193_at / RFU TMEM53 (11763286_at) / Fold change /veh TMEM53 (11763286_at) / RFU MAGEB2 (11727129_at) / Fold change /veh MAGEB2 (11727129_at) / RFU TMEM200A (11744735_a_at) / Fold change /veh TMEM200A (11744735_a_at) / RFU CCDC152 (11751479_a_at) / Fold change /veh CCDC152 (11751479_a_at) / RFU FAM211A (11726209_a_at) / Fold change /veh FAM211A (11726209_a_at) / RFU RGS16 (11746705_a_at) / Fold change /veh RGS16 (11746705_a_at) / RFU VCAN (11755009_s_at) / Fold change /veh VCAN (11755009_s_at) / RFU RHOB (11743442_s_at) / Fold change /veh RHOB (11743442_s_at) / RFU RGS16 (11720943_a_at) / Fold change /veh RGS16 (11720943_a_at) / RFU RGS16 (11720944_at) / Fold change /veh RGS16 (11720944_at) / RFU, VPS4B / Fold change vs veh, VPS4B / RFU, CREB1 / Fold change vs veh, CREB1 / RFU, DNAJC13 / Fold change vs veh, DNAJC13 / RFU, GNAQ / Fold change vs veh, GNAQ / RFU, CDK5R1 / Fold change vs veh, CDK5R1 / RFU, ZRANB3 / Fold change vs veh, ZRANB3 / RFU, CUL4A / Fold change vs veh, CUL4A / RFU, CCNY / Fold change vs veh, CCNY / RFU, UFL1 / Fold change vs veh, UFL1 / RFU, COG3 / Fold change vs veh, COG3 / RFU, DIAPH2 / Fold change vs veh, DIAPH2 / RFU, SKA2 / Fold change vs veh, SKA2 / RFU, AFF3 / Fold change vs veh, AFF3 / RFU, LMF1 / Fold change vs veh, LMF1 / RFU, IPO11 / Fold change vs veh, IPO11 / RFU, DFFB / Fold change vs veh, DFFB / RFU, FOXP1 / Fold change vs veh, FOXP1 / RFU, CARD8 / Fold change vs veh, CARD8 / RFU, STRN3 / Fold change vs veh, STRN3 / RFU, ADK / Fold change vs veh, ADK / RFU, RASSF2 / Fold change vs veh, RASSF2 / RFU, WIPF1 / Fold change vs veh, WIPF1 / RFU, LARP1B / Fold change vs veh, LARP1B / RFU, RASA1 / Fold change vs veh, RASA1 / RFU, RB1 / Fold change vs veh, RB1 / RFU, PPFIA1 / Fold change vs veh, PPFIA1 / RFU, MAT2A / Fold change vs veh, MAT2A / RFU, CCT5 / Fold change vs veh, CCT5 / RFU, WDR92 / Fold change vs veh, WDR92 / RFU, CUX1 / Fold change vs veh, CUX1 / RFU, TTC7A / Fold change vs veh, TTC7A / RFU, TMEM135 / Fold change vs veh, TMEM135 / RFU, DEPTOR / Fold change vs veh, DEPTOR / RFU, CPM / Fold change vs veh, CPM / RFU, DNAJB6 / Fold change vs veh, DNAJB6 / RFU, CACNA2D3 / Fold change vs veh, CACNA2D3 / RFU, DTX4 / Fold change vs veh, DTX4 / RFU, TFCP2 / Fold change vs veh, TFCP2 / RFU, GMCL1 /// GMCL1P1 / Fold change vs veh, GMCL1 /// GMCL1P1 / RFU, AEBP2 / Fold change vs veh, AEBP2 / RFU, SNHG1 /// SNORD22 /// SNORD25 /// SNORD26 /// SNORD27 /// SNORD28 /// SNORD29 /// SNORD31 / Fold change vs veh, SNHG1 /// SNORD22 /// SNORD25 /// SNORD26 /// SNORD27 /// SNORD28 /// SNORD29 /// SNORD31 / Fold change (Aza/veh), C12orf56 (ProbeSet 11735607_a_at) / Fold change (ACY-1035/veh), C12orf56 (ProbeSet 11735607_a_at) / Fold change (Aza/veh), FGFR1OP (ProbeSet 11751329_s_at) / Fold change (ACY-1035/veh), FGFR1OP (ProbeSet 11751329_s_at) / Fold change (Aza/veh), VPS36 (ProbeSet 11739960_a_at) / Fold change (ACY-1035/veh), VPS36 (ProbeSet 11739960_a_at) / RFU SYPL1 (11715823_x_at) / Fold change /veh SYPL1 (11715823_x_at) / RFU IGFBP7 (11715501_s_at) / Fold change /veh IGFBP7 (11715501_s_at) / RFU REEP3 (11722064_at) / Fold change /veh REEP3 (11722064_at) / RFU IGLL1 (11728026_x_at) / Fold change /veh IGLL1 (11728026_x_at): dose or concentration left out as unconfirmed
Conditions: ProbeSet 11755070_a_at; LIST D

Question: Which “RFU, CARD8” value does the source give for Nc1ccc(-c2cccs2)cc1NC(=O)c1ccc2c(c1)cc(C1CC1)n2CCN1CCOCC1 [ACY-1035] here?
Answer: 173.18 RFU
